Source: patent US9296757B2, “Substituted benzothienopyrimidines” (BAYER PHARMA AKTIENGESELLSCHAFT, priority 2012, dated 2016)

target: human full-length MKNK1 (Homo sapiens (Human), UniProt Q9BUB5, T344D); assay: MKNK1 kinase high ATP assay (TR-FRET); format: biochemical; conditions: high ATP (2 mM final), 15 min preincubation with enzyme
Description: MKNK1-inhibitory activity at high ATP of compounds of the present invention after their preincubation with MKNK1 was quantified employing the TR-FRET-based MKNK1 high ATP assay as described in the following paragraphs.
A recombinant fusion protein of Glutathione-S-Transferase (GST, N-terminally) and human full-length MKNK1 (amino acids 1-424 and T344D of accession number BAA 19885.1), expressed in insect cells using baculovirus expression system and purified via glutathione sepharose affinity chromatography, was purchased from Carna Biosciences (product no 02-145) and used as enzyme. As substrate for the kinase reaction the biotinylated peptide biotin-Ahx-IKKRKLTRRKSLKG (C-terminus in amide form) was used, which can be purchased e.g. from the company Biosyntan (Berlin-Buch, Germany).
For the assay 50 nL of a 100 fold concentrated solution of the test compound in DMSO was pipetted into a black low volume 384 well microtiter plate (Greiner Bio-One, Frickenhausen, Germany), 2 μL of a solution of MKNK1 in aqueous assay buffer [50 mM HEPES pH 7.5, 5 mM MgCl2, 1.0 mM dithiothreitol, 0.005% (v/v) Nonidet-P40 (Sigma)] was added and the mixture was incubated for 15 min at 22° C. to allow pre-binding of the test compounds to the enzyme before the start of the kinase reaction. Then the kinase reaction was started by the addition of 3 μL of a solution of adenosine-tri-phosphate (ATP, 3.3 mM=>final conc. in the 5 μL assay volume is 2 mM) and substrate (0.1 μM=>final conc. in the 5 μL assay volume is 0.06 μM) in assay buffer and the resulting mixture was incubated for a reaction time of 30 min at 22° C. The concentration of MKNK1 was adjusted depending of the activity of the enzyme lot and was chosen appropriate to have the assay in the linear range, typical concentrations were in the range of 0.003 μg/mL. The reaction was stopped by the addition of 5 μL of a solution of TR-FRET detection reagents (5 nM streptavidine-XL665 [Cisbio Bioassays, Codolet, France] and 1 nM anti-ribosomal protein S6 (pSer236)-antibody from Invitrogen [#44921G] and 1 nM LANCE EU-W1024 labeled ProteinG [Perkin-Elmer, product no. AD0071]) in an aqueous EDTA-solution (100 mM EDTA, 0.1% (w/v) bovine serum albumin in 50 mM HEPES pH 7.5).
The resulting mixture was incubated for 1 h at 22° C. to allow the formation of complex between the phosphorylated biotinylated peptide and the detection reagents. Subsequently the amount of phosphorylated substrate was evaluated by measurement of the resonance energy transfer from the Eu-chelate to the streptavidine-XL. Therefore, the fluorescence emissions at 620 nm and 665 nm after excitation at 350 nm were measured in a TR-FRET reader, e.g. a Rubystar (BMG Labtechnologies, Offenburg, Germany) or a Viewlux (Perkin-Elmer). The ratio of the emissions at 665 nm and at […] was taken as the measure for the amount of phosphorylated substrate. The data were normalised (enzyme reaction without inhibitor=0% inhibition, all other assay components but no enzyme=100% inhibition).

Chain of human full-length MKNK1 (Q9BUB5 other isoform, or with tags, fused parts or gaps T344D): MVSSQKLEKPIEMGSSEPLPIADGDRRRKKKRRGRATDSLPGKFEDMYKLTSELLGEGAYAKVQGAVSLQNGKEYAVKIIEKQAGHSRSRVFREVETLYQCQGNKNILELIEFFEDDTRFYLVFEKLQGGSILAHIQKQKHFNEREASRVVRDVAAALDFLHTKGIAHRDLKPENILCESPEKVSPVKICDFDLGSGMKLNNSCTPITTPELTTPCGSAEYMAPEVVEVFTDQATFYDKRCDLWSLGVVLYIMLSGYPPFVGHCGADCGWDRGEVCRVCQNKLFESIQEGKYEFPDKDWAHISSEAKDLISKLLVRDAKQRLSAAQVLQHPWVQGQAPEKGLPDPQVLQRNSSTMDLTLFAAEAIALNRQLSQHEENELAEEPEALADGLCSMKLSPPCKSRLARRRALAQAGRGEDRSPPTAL

Point of comparison: `CN(CC1CCCO1)C(=O)C1CCc2c(sc3ncnc(Nc4ccc5[nH]c(=O)sc5c4)c23)C1` (racemic) [Example 56, (7RS)-N-methyl-4-[(2-oxo-2,3-dihydro-1,3-benzothiazol-6-yl)amino]-N-[(2RS)-tetrahydrofuran-2-ylmethyl]-5,6,7,8-tetrahydro[1]benzothieno[2,3-d]pyrimidine-7-carboxamide], IC50 27 nM. Against it:
- CCN(CCC#N)C(=O)C1CCc2c(sc3ncnc(Nc4ccc5[nH]c(=O)sc5c4)c23)C1 (racemic) [Example 63, (RS)-N-(2-cyanoethyl)-N-ethyl-4-[(2-oxo-2,3-dihydro-1,3-benzothiazol-6-yl)amino]-5,6,7,8-tetrahydro[1]benzothieno[2,3-d]pyrimidine-7-carboxamide] — within 1.5-fold, 38 nM
- CCN(CCOC)C(=O)C1CCc2c(sc3ncnc(Nc4cc5sc(=O)[nH]c5cc4OC)c23)C1 (racemic) [Example 90, (RS)—N-Ethyl-N-(2-methoxyethyl)-4-[(5-methoxy-2-oxo-2,3-dihydro-1,3-benzothiazol-6-yl)amino]-5,6,7,8-tetrahydro[1]benzothieno[2,3-d]pyrimidine-7-carboxamide] — 27-fold lower, 1 nM
- CN1CCN(C(=O)C2CCc3c(sc4ncnc(Nc5ccc6[nH]c(=O)sc6c5)c34)C2)CC1 (racemic) [Example 37, (RS)-6-({7-[(4-methylpiperazin-1-yl)carbonyl]-5,6,7,8-tetrahydro[1]benzothieno[2,3-d]pyrimidin-4-yl}amino)-1,3-benzothiazol-2(3H)-one] — within 1.5-fold, 22 nM
- CN(C)C1CCN(C(=O)C2CCc3c(sc4ncnc(Nc5ccc6[nH]c(=O)sc6c5)c34)C2)C1 (racemic) [Example 73, 6-{[(7RS)-7-{[(3RS)-3-(dimethylamino)pyrrolidin-1-yl]carbonyl}-5,6,7,8-tetrahydro[1]benzothieno[2,3-d]pyrimidin-4-yl]amino}-1,3-benzothiazol-2(3H)-one] — within 1.5-fold, 34 nM
- O=C(C1CCc2c(sc3ncnc(Nc4ccc5[nH]c(=O)sc5c4)c23)C1)N1CCN2CCCCC2C1 (racemic) [Example 64, 6-({(7RS)-7-[(9aRS)-octahydro-2H-pyrido[1,2-a]pyrazin-2-ylcarbonyl]-5,6,7,8-tetrahydro[1]benzothieno[2,3-d]pyrimidin-4-yl}amino)-1,3-benzothiazol-2(3H)-one] — the same, 27 nM
- O=c1[nH]c2ccc(Nc3ncnc4sc5c(c34)CCC(CO)C5)cc2s1 (racemic) [Example 18, (RS)-6-{[7-(Hydroxymethyl)-5,6,7,8-tetrahydro[1]benzothieno[2,3-d]pyrimidin-4-yl]amino}-1,3-benzothiazol-2(3H)-one] — 2.2-fold higher, 60 nM
- CN(CCCCO)C(=O)C1CCc2c(sc3ncnc(Nc4ccc5[nH]c(=O)sc5c4)c23)C1 (racemic) [Example 66, (RS)-N-(4-hydroxybutyl)-N-methyl-4-[(2-oxo-2,3-dihydro-1,3-benzothiazol-6-yl)amino]-5,6,7,8-tetrahydro[1]benzothieno[2,3-d]pyrimidine-7-carboxamide] — within 1.5-fold, 34 nM
- CN(CC#N)C(=O)C1CCc2c(sc3ncnc(Nc4ccc5[nH]c(=O)sc5c4)c23)C1 (racemic) [Example 49, (RS)-N-(cyanomethyl)-N-methyl-4-[(2-oxo-2,3-dihydro-1,3-benzothiazol-6-yl)amino]-5,6,7,8-tetrahydro[1]benzothieno[2,3-d]pyrimidine-7-carboxamide] — 1.7-fold higher, 45 nM
- CCN(C(=O)C1CCc2c(sc3ncnc(Nc4cc5sc(=O)[nH]c5cc4OC)c23)C1)C(C)C (racemic) [Example 86, (RS)—N-Ethyl-N-isopropyl-4-[(5-methoxy-2-oxo-2,3-dihydro-1,3-benzothiazol-6-yl)amino]-5,6,7,8-tetrahydro[1]benzothieno[2,3-d]pyrimidine-7-carboxamide] — 9-fold lower, 3 nM
- CN(C)CCN(C)C(=O)C1CCc2c(sc3ncnc(Nc4ccc5[nH]c(=O)sc5c4)c23)C1 (racemic) [Example 35, (RS)-N-[2-(dimethylamino)ethyl]-N-methyl-4-[(2-oxo-2,3-dihydro-1,3-benzothiazol-6-yl)amino]-5,6,7,8-tetrahydro[1]benzothieno[2,3-d]pyrimidine-7-carboxamide] — within 1.5-fold, 36 nM
- O=C(C1CCc2c(sc3ncnc(Nc4ccc5[nH]c(=O)sc5c4)c23)C1)N1CCC(CO)CC1 (racemic) [Example 71, (RS)-6-[(7-{[4-(hydroxymethyl)piperidin-1-yl]carbonyl}-5,6,7,8-tetrahydro[1]benzothieno[2,3-d]pyrimidin-4-yl)amino]-1,3-benzothiazol-2(3H)-one] — 1.7-fold higher, 47 nM
- COCCN(CCOC)C(=O)C1CCc2c(sc3ncnc(Nc4ccc5[nH]c(=O)sc5c4)c23)C1 (racemic) [Example 52, (RS)-N,N-bis(2-methoxyethyl)-4-[(2-oxo-2,3-dihydro-1,3-benzothiazol-6-yl)amino]-5,6,7,8-tetrahydro[1]benzothieno[2,3-d]pyrimidine-7-carboxamide] — within 1.5-fold, 30 nM
- O=C(C1CCc2c(sc3ncnc(Nc4ccc5[nH]c(=O)sc5c4)c23)C1)N1Cc2ccccc2C1 (racemic) [Example 55, (RS)-6-{[7-(1,3-dihydro-2H-isoindol-2-ylcarbonyl)-5,6,7,8-tetrahydro[1]benzothieno[2,3-d]pyrimidin-4-yl]amino}-1,3-benzothiazol-2(3H)-one] — 2.7-fold higher, 72 nM
- CC(C)CNC(=O)C1CCc2c(sc3ncnc(Nc4ccc5[nH]c(=O)sc5c4)c23)C1 (racemic) [Example 6, (RS)—N-Isobutyl-4-[(2-oxo-2,3-dihydro-1,3-benzothiazol-6-yl)amino]-5,6,7,8-tetrahydro[1]benzothieno[2,3-d]pyrimidine-7-carboxamide] — within 1.5-fold, 40 nM
- O=C(CN1CCN(C(=O)C2CCc3c(sc4ncnc(Nc5ccc6[nH]c(=O)sc6c5)c34)C2)CC1)N1CCCC1 (racemic) [Example 43, (RS)-6-{[7-({4-[2-oxo-2-(pyrrolidin-1-yl)ethyl]piperazin-1-yl}carbonyl)-5,6,7,8-tetrahydro[1]benzothieno[2,3-d]pyrimidin-4-yl]amino}-1,3-benzothiazol-2(3H)-one] — 2.6-fold higher, 69 nM
- CCCCN(CC#N)C(=O)C1CCc2c(sc3ncnc(Nc4ccc5[nH]c(=O)sc5c4)c23)C1 (racemic) [Example 34, (RS)-N-butyl-N-(cyanonmethyl)-4-[(2-oxo-2,3-dihydro-1,3-benzothiazol-6-yl)amino]-5,6,7,8-tetrahydro[1]benzothieno[2,3-d]pyrimidine-7-carboxamide] — within 1.5-fold, 20 nM
- O=C(NC1CC1)C1CCc2c(sc3ncnc(Nc4ccc5[nH]c(=O)sc5c4)c23)C1 (racemic) [Example 4, (RS)—N-Cyclopropyl-4-[(2-oxo-2,3-dihydro-1,3-benzothiazol-6-yl)amino]-5,6,7,8-tetrahydro[1]benzothieno[2,3-d]pyrimidine-7-carboxamide] — 2.1-fold higher, 57 nM
- O=C(C1CCc2c(sc3ncnc(Nc4ccc5[nH]c(=O)sc5c4)c23)C1)N1CCN(Cc2ccccc2)CC1 (stereo not shown) [Example 38, 6-({7-[(4-benzylpiperazin-1-yl)carbonyl]-5,6,7,8-tetrahydro[1]benzothieno[2,3-d]pyrimidin-4-yl}amino)-1,3-benzothiazol-2(3H)-one] — 1.6-fold higher, 44 nM
- CC(C)C(=O)NCC1CCc2c(sc3ncnc(Nc4ccc5[nH]c(=O)sc5c4)c23)C1 (racemic) [Example 21, (RS)-2-Methyl-N-({4-[(2-oxo-2,3-dihydro-1,3-benzothiazol-6-yl)amino]-5,6,7,8-tetrahydro[1]benzothieno[2,3-d]pyrimidin-7-yl}methyl)propanamide] — within 1.5-fold, 37 nM
- CCCN(CCOC)C(=O)C1CCc2c(sc3ncnc(Nc4ccc5[nH]c(=O)sc5c4)c23)C1 (racemic) [Example 69, (RS)-N-(2-methoxyethyl)-4-[(2-oxo-2,3-dihydro-1,3-benzothiazol-6-yl)amino]-N-propyl-5,6,7,8-tetrahydro[1]benzothieno[2,3-d]pyrimidine-7-carboxamide] — within 1.5-fold, 19 nM
- CN(C)C(=O)CN(C)C(=O)C1CCc2c(sc3ncnc(Nc4ccc5[nH]c(=O)sc5c4)c23)C1 (racemic) [Example 62, (RS)-N-[2-(dimethylamino)-2-oxoethyl]-N-methyl-4-[(2-oxo-2,3-dihydro-1,3-benzothiazol-6-yl)amino]-5,6,7,8-tetrahydro[1]benzothieno[2,3-d]pyrimidine-7-carboxamide] — within 1.5-fold, 40 nM
